Assay results reported in US6593335B1, “Potassium channel openers” (Abbott Laboratories, priority 1997, dated 2003).

Columns and labels:
potassium channels [1] = target: potassium channels (Sus scrofa, UniProt F1SR11); assay: Functional potassium channel opening activity in isolated Landrace pig bladder strips (field-stimulated twitch); conditions: for Landrace Pig Bladder Index: ED50 for P1075 divided by ED50 for the test agonist, averaged over tissues; for Landrace Pig Bladder pD2: negative logarithm of ED50
Method in brief: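 Landrace pig bladder strips with the mucosa removed were field-stimulated (0.05 Hz, 0.5 ms, 20 V) in Krebs Ringer bicarbonate containing propranolol, and primed with 80 mM KCl. Cumulative concentration-response curves gave maximal efficacy relative to a reference potassium channel opener, pD2, and a potency index (reference ED50/test ED50) averaged across tissues.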

potassium channels [2] = target: potassium channels (Homo sapiens, UniProt O60706); assay: Functional potassium channel opening activity in isolated human bladder strips (25 mM KCl contracted)
Protocol: Human bladders were obtained from women greater than 45 years old. The human tissue was obtained from the Anatomic Gift Foundation, Phoenix AZ. Human tissue was received via overnight delivery on wet ice placed into Krebs Ringer bicarbonate solution (composition, mM: NaCl, 120; NaHCO3, 20; dextrose, 11; KCl, 4.7; 20 CaC′2, 2.5; MgSO4, 1.5; KH2PO4, 1.2; K2EDTA, 0.01, equilibrated with 5% C02/95% 02 pH 7.4 at 37 ° C.). Propranolol (0.004 mM) was included in all of the assays to block […]. The trigonal and dome portions were discarded. Strips 3-5 mm wide and 20 mm long were prepared from the remaining tissue cut in a circular fashion. The mucosal layer was removed. For the human detrusor strips the tissues were contracted 25 with 25 mM KCl which produced a steady state tension of approximately 400 centigrams. […]
After a 60 minute rinsing period, a concentration response curve (cumulative) was 30 generated for the test agonist in the same fashion as that used for the control agonist P1075. The maxximal efficacies of the compounds (expressed as % relative to P1075) are reported. […] Agonist potencies were also expressed as an index relative to PI1075. The index was calculated by dividing the ED50 for P1075 by the ED50 for the test agonist in a given tissue. […]

potassium channels [3] = target: potassium channels (Rattus norvegicus, UniProt Q63563); assay: Membrane hyperpolarization (MHP) assay in A10 cells, DiBAC(4)3 FLIPR; format: cell-based; conditions: for EC50: concentration that elicits 50% of the maximal response for the test sample; for MHP in A10 Cells Maximal Response (% P1075): maximal steady-state hyperpolarization relative to reference P1075 (assigned as 100%)
Sequence of potassium channels (Rattus norvegicus, UniProt Q63563) (Q63563 whole entry): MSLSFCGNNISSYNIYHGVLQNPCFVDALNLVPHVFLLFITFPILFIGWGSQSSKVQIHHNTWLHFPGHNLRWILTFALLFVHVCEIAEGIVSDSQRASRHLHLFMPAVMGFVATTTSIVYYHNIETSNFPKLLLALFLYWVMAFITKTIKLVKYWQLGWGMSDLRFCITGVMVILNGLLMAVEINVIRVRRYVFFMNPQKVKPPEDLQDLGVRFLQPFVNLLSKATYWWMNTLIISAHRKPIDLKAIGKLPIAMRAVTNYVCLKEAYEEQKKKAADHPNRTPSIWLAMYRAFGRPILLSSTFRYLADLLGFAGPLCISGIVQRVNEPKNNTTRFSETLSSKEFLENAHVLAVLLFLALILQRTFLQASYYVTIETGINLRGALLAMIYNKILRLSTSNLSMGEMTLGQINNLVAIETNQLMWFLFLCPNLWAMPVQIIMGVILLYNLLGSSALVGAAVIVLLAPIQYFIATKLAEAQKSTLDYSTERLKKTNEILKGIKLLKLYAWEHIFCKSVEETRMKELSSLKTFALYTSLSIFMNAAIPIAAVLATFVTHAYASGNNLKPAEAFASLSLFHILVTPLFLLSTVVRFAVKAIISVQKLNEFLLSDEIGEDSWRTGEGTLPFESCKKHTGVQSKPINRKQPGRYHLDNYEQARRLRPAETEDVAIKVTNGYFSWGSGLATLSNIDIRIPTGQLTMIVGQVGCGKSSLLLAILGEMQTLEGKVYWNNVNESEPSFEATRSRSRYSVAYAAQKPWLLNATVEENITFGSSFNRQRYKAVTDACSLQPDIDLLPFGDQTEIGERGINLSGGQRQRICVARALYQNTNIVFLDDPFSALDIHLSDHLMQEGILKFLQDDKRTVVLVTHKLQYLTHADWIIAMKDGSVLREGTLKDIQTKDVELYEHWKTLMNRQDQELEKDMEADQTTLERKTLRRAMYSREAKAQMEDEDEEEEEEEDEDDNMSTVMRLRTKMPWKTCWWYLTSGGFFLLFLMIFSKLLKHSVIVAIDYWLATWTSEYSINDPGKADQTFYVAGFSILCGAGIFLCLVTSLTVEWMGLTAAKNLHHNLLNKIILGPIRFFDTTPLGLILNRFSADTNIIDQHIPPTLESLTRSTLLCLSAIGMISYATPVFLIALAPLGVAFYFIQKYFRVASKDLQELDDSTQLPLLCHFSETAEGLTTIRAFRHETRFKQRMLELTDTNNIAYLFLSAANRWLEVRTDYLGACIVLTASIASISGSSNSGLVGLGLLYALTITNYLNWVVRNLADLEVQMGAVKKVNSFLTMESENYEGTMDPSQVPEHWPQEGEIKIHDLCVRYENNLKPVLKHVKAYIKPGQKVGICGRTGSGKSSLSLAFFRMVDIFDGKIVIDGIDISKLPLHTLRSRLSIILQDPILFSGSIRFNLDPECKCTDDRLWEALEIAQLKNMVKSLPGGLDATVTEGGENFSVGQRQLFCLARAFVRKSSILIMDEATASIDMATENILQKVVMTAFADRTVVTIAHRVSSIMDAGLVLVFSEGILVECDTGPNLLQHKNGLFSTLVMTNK
Sequence of potassium channels (Rattus norvegicus, UniProt Q63563) (Q63664 whole entry partner): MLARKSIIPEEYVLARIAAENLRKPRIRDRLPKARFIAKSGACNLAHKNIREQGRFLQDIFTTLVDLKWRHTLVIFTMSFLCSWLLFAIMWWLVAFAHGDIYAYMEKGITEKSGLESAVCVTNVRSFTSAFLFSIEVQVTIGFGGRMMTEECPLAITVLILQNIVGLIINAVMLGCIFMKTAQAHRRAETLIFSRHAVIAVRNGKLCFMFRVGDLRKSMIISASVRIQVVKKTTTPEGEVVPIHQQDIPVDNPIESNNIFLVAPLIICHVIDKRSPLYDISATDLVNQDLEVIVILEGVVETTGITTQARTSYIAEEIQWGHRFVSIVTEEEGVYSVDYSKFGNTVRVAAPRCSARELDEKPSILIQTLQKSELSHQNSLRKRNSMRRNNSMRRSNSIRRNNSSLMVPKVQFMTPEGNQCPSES
Protocol: Determination of Potassium Channel Opening Activity Membrane Hyperpolarization Assays Compounds were evaluated for potassium channel opening activity using the rat thoracic aorta smooth muscle AI 0 cell line or primary cultured guinea-pig urinary bladder (GPB) cells.
The AI0 cell line was purchased from the American Type Culture Collection (Rockville, MD; Cat # 30-2002). Cells were grown in 96-well clear-bottomed black plates (Packard) in culture media (composition: Dulbecco′s modified Eagle′s medium supplemented with 20% Fetal Bovine Serum, 100 units/mL penicillin, 100 units/mL streptomycin and 0.25 […]) at 37 ° C. with 5% C02 in a humidified chamber to form a confluent monolayer. 25 For the preparation of urinary bladder smooth muscle cells, urinary bladders were removed from male guinea-pigs (Hartley, Charles River, Wilmington, MA) weighing 300-400 g and placed in ice-cold Ca^2+-free Krebs solution (Composition, mM: KCl, 2.7; KH2PO4, 1.5; NaCl, 75; Na2HPO4, 9.6; Na2HPO4.7H2O, 8; MgSO4, 2; glucose, 5;HEPES, 10; pH 7.4). Cells were isolated by enzymatic dissociation as previously escribed with minor modifications (Klockner, U. and Isenberg, G., Pflugers Arch. 1985, 05, 329-339). The bladder was cut into small sections and incubated in 5 mL of the reb′s solution containing I mg/mL collagenase (Sigma, St. Louis, MO) and 0.2 mg/mL ronase (Calbiochem, La Jolla, CA) with continuous stirring in a cell incubator for 30 minutes. […]
Functional activity at potassium channels was measured by evaluating changes in membrane potential using the bis-oxonol dye DiBAC(4)3 (Molecular Probes) in a 96-well cell-based kinetic assay system, Fluorescent Imaging Plate Reader (FLIPR) (K.S. Schroeder et al., J. Biomed. Screen., v. I pp. 75-81 (1996)). […] With increasing membrane potential (for example, K+depolarization), the probe further partitions into the cell; this is measured as an increase in fluorescence due to dye interaction with intracellular lipids and proteins.
Conyersely, decreasing membrane potential (hyperpolarization by potassium channel openers) evokes a decrease in fluorescence.
Confluent smooth muscle A10 or guinea-pig urinary bladder cells cultured in black clear-bottomed 96-well plates were rinsed twice with […] assay buffer (composition, mM: HEPES, 20; NaCl, 120; KCl, 2; CaC′2, 2; MgCl2, 1; glucose, 5; pH 7.4 at 25 ° C.) containing 5 µM DiBAC(4)3 and incubated with […] of the buffer in a cell incubator for 30 minutes at 37 OC to ensure dye distribution across the membrane. After recording the baseline fluorescence for 5 minutes, the reference or test compounds, prepared at 10 times the concentration in the assay buffer, were added directly to the wells. Changes in fluorescence were monitored for an additional 25 minutes. […]

potassium channels [4] = target: potassium channels (Cavia porcellus, UniProt A0A286XYR9); assay: Membrane hyperpolarization (MHP) assay in primary cultured guinea-pig urinary bladder (GPB) cells, DiBAC(4)3 FLIPR; format: cell-based; conditions: for EC50: concentration that elicits 50% of the maximal response for the test sample; for MHP in GPB Cells Maximal Response (% P1075): maximal steady-state hyperpolarization relative to reference P1075 (assigned as 100%)
Sequence of potassium channels (Cavia porcellus, UniProt A0A286XYR9) (A0A286XYR9 1-1546): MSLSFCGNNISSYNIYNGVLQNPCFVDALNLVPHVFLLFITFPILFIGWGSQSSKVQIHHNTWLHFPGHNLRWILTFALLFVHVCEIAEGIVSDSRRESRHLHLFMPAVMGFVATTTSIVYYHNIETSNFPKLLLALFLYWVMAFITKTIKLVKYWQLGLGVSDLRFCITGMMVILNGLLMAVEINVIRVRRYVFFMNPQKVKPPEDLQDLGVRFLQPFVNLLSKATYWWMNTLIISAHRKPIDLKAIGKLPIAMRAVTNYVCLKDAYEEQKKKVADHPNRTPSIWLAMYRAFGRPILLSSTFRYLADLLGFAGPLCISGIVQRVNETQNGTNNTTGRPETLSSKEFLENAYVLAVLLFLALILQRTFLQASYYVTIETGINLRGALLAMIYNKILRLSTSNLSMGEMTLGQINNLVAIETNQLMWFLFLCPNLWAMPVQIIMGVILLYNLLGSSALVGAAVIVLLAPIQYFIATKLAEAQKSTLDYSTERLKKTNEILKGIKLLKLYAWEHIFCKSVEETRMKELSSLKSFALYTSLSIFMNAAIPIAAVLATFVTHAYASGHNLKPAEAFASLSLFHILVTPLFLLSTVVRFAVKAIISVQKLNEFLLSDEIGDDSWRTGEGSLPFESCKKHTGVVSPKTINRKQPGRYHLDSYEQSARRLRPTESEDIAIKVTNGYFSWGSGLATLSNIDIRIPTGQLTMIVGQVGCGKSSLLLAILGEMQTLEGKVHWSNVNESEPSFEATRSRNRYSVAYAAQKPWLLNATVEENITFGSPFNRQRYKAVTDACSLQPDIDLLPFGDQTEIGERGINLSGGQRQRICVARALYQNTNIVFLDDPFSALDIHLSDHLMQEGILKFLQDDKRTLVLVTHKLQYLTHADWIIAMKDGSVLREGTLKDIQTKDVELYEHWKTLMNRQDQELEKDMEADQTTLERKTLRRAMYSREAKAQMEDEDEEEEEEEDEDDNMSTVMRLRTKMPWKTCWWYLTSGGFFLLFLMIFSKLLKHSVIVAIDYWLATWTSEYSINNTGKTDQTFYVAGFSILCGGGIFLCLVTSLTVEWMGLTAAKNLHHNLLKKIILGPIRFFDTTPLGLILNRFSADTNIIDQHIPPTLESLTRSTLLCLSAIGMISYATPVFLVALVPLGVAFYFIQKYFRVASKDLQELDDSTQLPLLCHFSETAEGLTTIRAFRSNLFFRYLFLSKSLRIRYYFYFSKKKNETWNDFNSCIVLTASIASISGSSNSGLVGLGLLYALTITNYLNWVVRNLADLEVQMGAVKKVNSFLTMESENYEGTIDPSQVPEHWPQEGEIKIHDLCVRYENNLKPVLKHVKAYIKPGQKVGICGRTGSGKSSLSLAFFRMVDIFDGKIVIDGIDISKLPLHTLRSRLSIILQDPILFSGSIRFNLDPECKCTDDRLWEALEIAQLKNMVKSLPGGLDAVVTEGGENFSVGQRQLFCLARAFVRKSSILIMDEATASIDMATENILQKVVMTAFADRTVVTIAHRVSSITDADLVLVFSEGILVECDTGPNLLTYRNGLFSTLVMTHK
Sequence of potassium channels (Cavia porcellus, UniProt A0A286XYR9) (Q9JHJ9 whole entry partner): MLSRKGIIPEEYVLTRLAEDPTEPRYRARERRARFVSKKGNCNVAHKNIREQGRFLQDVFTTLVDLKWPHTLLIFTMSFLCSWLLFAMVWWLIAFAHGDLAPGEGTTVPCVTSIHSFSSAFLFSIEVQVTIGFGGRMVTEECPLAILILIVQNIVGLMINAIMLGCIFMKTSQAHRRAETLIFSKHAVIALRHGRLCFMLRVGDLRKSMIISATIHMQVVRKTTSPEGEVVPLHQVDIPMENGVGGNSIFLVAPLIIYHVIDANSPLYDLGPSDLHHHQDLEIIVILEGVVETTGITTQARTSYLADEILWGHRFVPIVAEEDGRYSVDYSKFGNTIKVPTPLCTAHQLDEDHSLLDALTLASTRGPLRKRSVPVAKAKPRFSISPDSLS
Protocol: Determination of Potassium Channel Opening Activity Membrane Hyperpolarization Assays Compounds were evaluated for potassium channel opening activity using the rat thoracic aorta smooth muscle AI 0 cell line or primary cultured guinea-pig urinary bladder (GPB) cells. The AI0 cell line was purchased from the American Type Culture Collection (Rockville, MD; Cat # 30-2002). […] Louis, MO) and 0.2 mg/mL ronase (Calbiochem, La Jolla, CA) with continuous stirring in a cell incubator for 30 minutes. The mixture was then centrifuged at 1300 x g for 5 minutes, and the pellet resuspended in Dulbecco's PBS (GIBCO, Gaithersburg, MD) and recentrifuged to remove residual enzyme. […] Cells were confirmed to be of smooth muscle type by cytoskeletal staining using a monoclonal mouse anti human-a-smooth muscle actin (Biomeda, Foster City, CA). Functional activity at potassium channels was measured by evaluating changes in membrane potential using the bis-oxonol dye DiBAC(4)3 (Molecular Probes) in a 96-well cell-based kinetic assay system, Fluorescent Imaging Plate Reader (FLIPR) (K.S. Schroeder et al., J. Biomed. Screen., v. I pp. 75-81 (1996)). DiBAC(4)3 is an anionic potentiometric probe which partitions between cells and extracellular solution in a membrane potential-dependent manner. With increasing membrane potential (for example, K+depolarization), the probe further partitions into the cell; this is measured as an increase in fluorescence due to dye interaction with intracellular lipids and proteins. Conyersely, decreasing membrane potential (hyperpolarization by potassium channel openers) evokes a decrease in fluorescence. […] HEPES, 20; NaCl, 120; KCl, 2; CaC'2, 2; MgCl2, 1; glucose, 5; pH 7.4 at 25 ° C.) containing 5 µM DiBAC(4)3 and incubated with […] of the buffer in a cell incubator for 30 minutes at 37 OC to ensure dye distribution across the membrane. After recording the baseline fluorescence for 5 minutes, the reference or test compounds, prepared at 10 times the concentration in the assay buffer, were added directly to the wells. Changes in fluorescence were monitored for an additional 25 minutes. […] Pharmacol., v. 43 pp. 474-481 (1993)). Routinely, five concentrations of […] or test compounds (log or half-log dilutions) were evaluated and the maximal steady-state hyperpolarization values (expressed as % relative to […]) plotted as a function of concentration. […] The maximal response of each compound (expressed as % relative to […]) is reported.

Male CD rats = assay: In-vivo bladder efficacy protocol (isovolumetric contractions model); parameters: species or system rat
Text: The utility of compounds of the inyention for the treatment of urinary incontinence, bladder overactivity and bladder instability is illustrated by the ability of compounds of the inyention to affect bladder contractions in-vivo. The following method is illustrative of the in-vivo bladder efficacy of compounds of the inyention. In-vivo bladder efficacy protocol (isovolumetric contractions model) Male CD rats (400-450 g) were anesthetized with urethane (0.6 gikg ip +0.6 g/kg sc). The left femoral vein was cannulated with polyethylene (PE-50) tubing for test compound administration. […] The bladder was emptied via this catheter and additionally by applying slight manual pressure on the lower abdomen. The urinary catheter was connected using a Y-tube connector to both a pressure transducer and a syringe pump. The urethra was then ligated using 4-0 silk suture and the bladder was slowly filled using a constant infusion of room temperature saline at the rate of 0.1 ml/min until spontaneous rhythmic contractions were evident (1.0 -1.3 ml). […] Then three doses of a test compound were administered cumulatively iv at 20 minute intervals. […] Area under the curve (AUC) of the bladder contractions was determined from the respective waveforms using a Modular Instruments, Inc. computerized data acquisition system and averaged over the last ten minutes of each twenty minute period.

[5] = maximal efficacy relative to P1075, field stimulation 0.05Hz, 0.5 milli-seconds at 20 volts

| SMILES | relaxation of human detrusor strips (potassium channels [2]; control agonist, 25 mM KCl contracted) | Landrace Pig Bladder Index (potassium channels [1]) | Landrace Pig Bladder Efficacy (% P1075) (potassium channels [1]; [5]) | Landrace Pig Bladder pD2 (potassium channels [1]) | EC50 (potassium channels [3]) [µM] | MHP in A10 Cells Maximal Response (% P1075) (potassium channels [3]) | EC50 (potassium channels [4]) [µM] | MHP in GPB Cells Maximal Response (% P1075) (potassium channels [4]) | Emax (potassium channels [1]; pig, maximal efficacy relative to P1075, field stimulation 0.05Hz, 0.5 milli-seconds at 20 volts) [%] | Emax (potassium channels [2]; human, maximal efficacy relative to P1075, detrusor strips contracted with 25 mM KCl) [%] | effect on stimulated twitch of pig bladder strips (potassium channels [1]; control agonist, concentration range of 10-9 to 10-′M, 1/2 log increments) | reduction in bladder AUC (Male CD rats; iv, dose range of 0.01, 0.1) | AUC ED30 (dose required to reduce the area under the curve of the bladder contractions by 30% relative to control) (Male CD rats; urethane-anesthetized male CD rats, iv cumulative dosing) [µmol/kg] |
| --- | --- | --- | --- | --- | --- | --- | --- | --- | --- | --- | --- | --- | --- |
| CCC(C)(C)N=C(NC#N)Nc1cccnc1 [Example P1075, reference compound] | complete relaxation |  |  |  |  |  |  |  |  |  | completely eliminated the stimulated twitch |  |  |
| O=C1CCC2=C1C(c1ccc(F)c(Br)c1)C1=C(CCS1(=O)=O)N2 (single isomer, unassigned; (+)) [Example 87] |  | 0.90 | 100 | 7.5 |  |  |  |  |  |  |  | dose dependent reduction in bladder AUC | 0.06 |
| O=C1CCCC2=C1C(c1ccc(Cl)c([N+](=O)[O-])c1)C1=C(CCCS1(=O)=O)N2 (stereo not shown) [Example 19, 10-(4-chloro-3-nitrolphenyl)-3,4,6,7,8,10-hexahydro-2H-thiopyrano [3,2-b]quinolin-9(5H)-one, 1,1-dioxide] |  | 0.13 |  | 6.0 |  |  |  |  | 94 | 100 |  |  |  |

More lines, main results first:

| relaxation of human detrusor strips (potassium channels [2]; control agonist, 25 mM KCl contracted) | Landrace Pig Bladder Index (potassium channels [1]) | Landrace Pig Bladder Efficacy (% P1075) (potassium channels [1]; [5]) | Landrace Pig Bladder pD2 (potassium channels [1]) | EC50 (potassium channels [3]) [µM] | MHP in A10 Cells Maximal Response (% P1075) (potassium channels [3]) | EC50 (potassium channels [4]) [µM] | MHP in GPB Cells Maximal Response (% P1075) (potassium channels [4]) | Emax (potassium channels [1]; pig, maximal efficacy relative to P1075, field stimulation 0.05Hz, 0.5 milli-seconds at 20 volts) [%] | Emax (potassium channels [2]; human, maximal efficacy relative to P1075, detrusor strips contracted with 25 mM KCl) [%] | SMILES | effect on stimulated twitch of pig bladder strips (potassium channels [1]; control agonist, concentration range of 10-9 to 10-′M, 1/2 log increments) | reduction in bladder AUC (Male CD rats; iv, dose range of 0.01, 0.1) | AUC ED30 (dose required to reduce the area under the curve of the bladder contractions by 30% relative to control) (Male CD rats; urethane-anesthetized male CD rats, iv cumulative dosing) [µmol/kg] |
| --- | --- | --- | --- | --- | --- | --- | --- | --- | --- | --- | --- | --- | --- |
|  | 0.025 | 95 | 5.0 | 7.5 | 66 | 2.5 | 100 |  |  | O=C1CCCC2=C1C(c1cccc(Br)c1)C1=C(CCCS1(=O)=O)N2 (stereo not shown) [Example 8, 10-(3-bromophenyl)-3,4,6,7,8,10-hexahydro-2H-thiopyrano [3,2-b]quinolin-9(5H)-one, 1,1-dioxide] |  |  |  |
|  | 0.0021 | 100 | 4.1 | 11 | 42 | 20 | 29 |  |  | O=C1CCCC2=C1C(c1cccc(F)c1)C1=C(CCCS1(=O)=O)N2 (stereo not shown) [Example 11, 10-(3-fluorophenyl)-3,4,6,7,8,10-hexahydro-2H-thionyrano [3,2-b]quinolin-9(5H)-one, 1,1-dioxide] |  |  |  |
